Laboratory results taken from patent US10633386B2, “BET protein degraders” (THE REGENTS OF THE UNIVERSITY OF MICHIGAN, priority 2016, dated 2020).
Read-outs that look alike come from different tables or passages of the source.

What was measured:
Assay type in all cases: cell-based
H520 = experiment: Cell growth inhibition (CellTiter-Glo), NSCLC line H520; conditions: H520 non-small cell lung cancer cell line, 4 days
Protocol: (§1) Cell growth inhibitory activity of representative BET bromodomain degraders in representative non-small cell lung cancer cell lines was determined using the CellTiter-Glo® Luminescent Cell Viability Assay. Cells were seeded in 384-well white opaque cell culture plates at a density of 2,000 cells/well with serially diluted compounds and incubated at 37° C. in an atmosphere of 95% air and 5% CO2 for 4 days. Cell viability was determined using the CellTiter-Glo® Luminescent Cell Viability Assay Kit (Promega, Madison, Wis.) according to the manufacture's instruction. Briefly, a volume of CellTiter-Glo® Reagent equal to the volume of cell culture medium was added to each well, and then the plates were incubated at room temperature for 10-20 minutes. The luminescent signal was measured using a Tecan Infinite M1000 multimode microplate reader (Tecan, Morrisville, N.C.). The half maximal inhibitory concentration (IC50) was calculated using the GraphPad Prism 5 software (GraphPad Software, La Jolla, Calif.). Cpd. A is a BET bromodomain inhibitor, see U.S. Appl.

HCC1187 = experiment: Cell growth inhibition (CellTiter-Glo), breast cancer line HCC1187; conditions: 4 days
Protocol: (§2) Cell growth inhibitory activity of representative BET bromodomain degraders in representative breast cancer cell lines was determined using the CellTiter-Glo® Luminescent Cell Viability Assay. SUM-52 and SUM-159 cell lines were established at the University of Michigan Comprehensive Cancer Center. All the other breast cancer cell lines were obtained from the ATCC (Manassas, Va.). Cells were seeded in 384-well cell culture plates at a density of 1,000-2,500 cells/well with serially diluted compounds and incubated at 37° C. in an atmosphere of 95% air and 5% CO2 for 4 days. Cell viability was determined using the CellTiter-Glo® Luminescent Cell Viability Assay Kit (Promega, Madison, Wis.) according to the manufacture's instruction. Briefly, a volume of CellTiter-Glo® Reagent equal to the volume of cell culture medium was added to each well, and then the plates were incubated at room temperature for 20-60 minutes. The luminescent signal was measured using a Tecan Infinite M1000 multimode microplate reader (Tecan, Morrisville, N.C.). The half maximal inhibitory concentration (IC50) was calculated using the GraphPad Prism 5 software (GraphPad Software, La Jolla, Calif.). “Thd” is thalidomide.

A549 = experiment: Cell growth inhibition (CellTiter-Glo), NSCLC line A549; conditions: A549 non-small cell lung cancer cell line, 4 days
Protocol: as §1

SUM-159 = experiment: Cell growth inhibition (CellTiter-Glo), breast cancer line SUM-159; conditions: SUM-159 breast cancer cell line, 4 days
Protocol: as §2

SW48 = experiment: Cell growth inhibition (CellTiter-Glo), colon cancer line SW48
Protocol: as §1, with “Appl. No. 62/121,637, having the following structure:” for “Appl.”
(§3) Cell growth inhibitory activity of representative BET bromodomain degraders in representative colon cancer cell lines, see Table 7, was determined as described in Example 17.

SKCO-1 = experiment: Cell growth inhibition (CellTiter-Glo), colon cancer line SKCO-1; conditions: SKCO-1 colon cancer cell line
Protocol: as §1, with “Appl. No. 62/121,637, having the following structure:” for “Appl.”
as §3

CALU6 = experiment: Cell growth inhibition (CellTiter-Glo), NSCLC line CALU6; conditions: CALU6 non-small cell lung cancer cell line, 4 days
Protocol: as §1

HBL-100 = experiment: Cell growth inhibition (CellTiter-Glo), breast cancer line HBL-100; conditions: HBL-100 breast cancer cell line, 4 days
Protocol: as §2

HCC1954 = experiment: Cell growth inhibition (CellTiter-Glo), breast cancer line HCC1954; conditions: 4 days
Protocol: as §2

RKO = experiment: Cell growth inhibition (CellTiter-Glo), colon cancer line RKO
Protocol: as §1, with “Appl. No. 62/121,637, having the following structure:” for “Appl.”
as §3

SW1463 = experiment: Cell growth inhibition (CellTiter-Glo), colon cancer line SW1463
Protocol: as §1, with “Appl. No. 62/121,637, having the following structure:” for “Appl.”
as §3

SW837 = experiment: Cell growth inhibition (CellTiter-Glo), colon cancer line SW837
Protocol: as §1, with “Appl. No. 62/121,637, having the following structure:” for “Appl.”
as §3

H508 = experiment: Cell growth inhibition (CellTiter-Glo), colon cancer line H508
Protocol: as §1, with “Appl. No. 62/121,637, having the following structure:” for “Appl.”
as §3

H1648 = experiment: Cell growth inhibition (CellTiter-Glo), NSCLC line H1648; conditions: H1648 non-small cell lung cancer cell line, 4 days
Protocol: as §1

H1299 = experiment: Cell growth inhibition (CellTiter-Glo), NSCLC line H1299; conditions: H1299 non-small cell lung cancer cell line, 4 days
Protocol: as §1

H2170 = experiment: Cell growth inhibition (CellTiter-Glo), NSCLC line H2170; conditions: H2170 non-small cell lung cancer cell line, 4 days
Protocol: as §1

H322 = experiment: Cell growth inhibition (CellTiter-Glo), NSCLC line H322; conditions: H322 non-small cell lung cancer cell line, 4 days
Protocol: as §1

MDA-MB-453 = experiment: Cell growth inhibition (CellTiter-Glo), breast cancer line MDA-MB-453; conditions: MDA-MB-453 breast cancer cell line, 4 days
Protocol: as §2

SKLU-1 = experiment: Cell growth inhibition (CellTiter-Glo), NSCLC line SKLU-1; conditions: SKLU-1 non-small cell lung cancer cell line, 4 days
Protocol: as §1

Lovo = experiment: Cell growth inhibition (CellTiter-Glo), colon cancer line Lovo
Protocol: as §1, with “Appl. No. 62/121,637, having the following structure:” for “Appl.”
as §3

SW1412 = experiment: Cell growth inhibition (CellTiter-Glo), colon cancer line SW1412
Protocol: as §1, with “Appl. No. 62/121,637, having the following structure:” for “Appl.”
as §3

MDA-MB-157 = experiment: Cell growth inhibition (CellTiter-Glo), breast cancer line MDA-MB-157; conditions: MDA-MB-157 breast cancer cell line, 4 days
Protocol: as §2

LS123 = experiment: Cell growth inhibition (CellTiter-Glo), colon cancer line LS123
Protocol: as §1, with “Appl. No. 62/121,637, having the following structure:” for “Appl.”
as §3

Cc1sc2c(c1C)C(c1ccc(Cl)cc1)=N[C@@H](CC(=O)NCCCCNC(=O)COc1cccc3c1C(=O)N(C1CCC(=O)NC1=O)C3=O)c1nnc(C)n1-2 (some centres unmarked) [dBET1, reference compound]
IC50 (H520): 4200 nM | IC50 (HCC1187): > 5000 nM | IC50 (A549): > 5000 nM | IC50 (SUM-159): > 5000 nM | IC50 (SW48): 2780 nM | IC50 (SKCO-1): > 5000 nM | IC50 (CALU6): > 5000 nM | IC50 (HBL-100): > 5000 nM | IC50 (HCC1954): 3760 nM | IC50 (RKO): > 5000 nM | IC50 (SW1463): 2730 ± 300 nM | IC50 (SW837): > 5000 nM | IC50 (H508): > 5000 nM | IC50 (H1648): > 5000 nM | IC50 (H1299): > 5000 nM | IC50 (H2170): > 5000 nM | IC50 (H322): > 5000 nM | IC50 (MDA-MB-453): > 5000 nM | IC50 (SKLU-1): > 5000 nM | IC50 (Lovo): > 5000 nM | IC50 (SW1412): > 5000 nM | IC50 (MDA-MB-157): 1170 nM | IC50 (LS123): > 5000 nM

CCn1nc(C2CC2)cc1Nc1nc(C(=O)NCCCCNc2cccc3c2C(=O)N(C2CCC(=O)NC2=O)C3=O)nc2[nH]c3cc(-c4c(C)noc4C)c(OC)cc3c12 (centres unmarked) [Cpd. No. 9]
IC50 (H520; Homo sapiens, NCI-H520, 96 h): 11 nM | IC50 (A549; Homo sapiens, 96 h): 157 nM | IC50 (SW48; Homo sapiens): 8 nM | IC50 (SKCO-1; Homo sapiens, SK-CO-1): 23 ± 10 nM | IC50 (CALU6; Homo sapiens, Calu-6, 96 h): 33 nM | IC50 (RKO; Homo sapiens): 241 ± 27 nM | IC50 (SW1463; Homo sapiens): 191 ± 30 nM | IC50 (SW837; Homo sapiens): 230 ± 67 nM | IC50 (H508; Homo sapiens, NCI-H508): 410 ± 150 nM | IC50 (H1648; Homo sapiens, NCI-H1648, 96 h): 22 nM | IC50 (H1299; Homo sapiens, NCI-H1299, 96 h): 228 nM | IC50 (H2170; Homo sapiens, NCI-H2170, 96 h): 195 nM | IC50 (H322; NCI-H322, 96 h): 93 nM | IC50 (SKLU-1; Homo sapiens, SK-LU-1, 96 h): 11 nM | IC50 (Lovo; Homo sapiens): 46 ± 49 nM | IC50 (SW1412): 34 ± 20 nM | IC50 (LS123; Homo sapiens, LS-123): 74 ± 50 nM

CCn1nc(C2CC2)cc1Nc1nc(C(=O)NCCCOCCOCCOCCCNc2cccc3c2C(=O)N(C2CCC(=O)NC2=O)C3=O)nc2[nH]c3cc(-c4c(C)noc4C)c(OC)cc3c12 (centres unmarked) [Cpd. No. 4]
IC50 (H520; Homo sapiens, NCI-H520, 96 h): 3 nM | IC50 (HCC1187; Homo sapiens, 96 h): 3 nM | IC50 (A549; Homo sapiens, 96 h): 119 nM | IC50 (SUM-159; SUM159, 96 h): 166 nM | IC50 (SW48; Homo sapiens): 6 nM | IC50 (SKCO-1; Homo sapiens, SK-CO-1): 8 ± 4 nM | IC50 (CALU6; Homo sapiens, Calu-6, 96 h): 9 nM | IC50 (HBL-100; Homo sapiens, 96 h): 4 nM | IC50 (HCC1954; Homo sapiens, 96 h): 4 nM | IC50 (RKO; Homo sapiens): 46 ± 1 nM | IC50 (SW1463; Homo sapiens): 31 ± 10 nM | IC50 (SW837; Homo sapiens): 76 ± 30 nM | IC50 (H508; Homo sapiens, NCI-H508): 54 ± 30 nM | IC50 (H1648; Homo sapiens, NCI-H1648, 96 h): 5 nM | IC50 (H1299; Homo sapiens, NCI-H1299, 96 h): 69 nM | IC50 (H2170; Homo sapiens, NCI-H2170, 96 h): 99 nM | IC50 (H322; NCI-H322, 96 h): 44 nM | IC50 (MDA-MB-453; Homo sapiens, 96 h): 2 nM | IC50 (SKLU-1; Homo sapiens, SK-LU-1, 96 h): 3 nM | IC50 (Lovo; Homo sapiens): 13 ± 14 nM | IC50 (SW1412): 9 ± 4 nM | IC50 (MDA-MB-157; Homo sapiens, 96 h): 2 nM | IC50 (LS123; Homo sapiens, LS-123): 11 ± 10 nM

CCn1nc(C2CC2)cc1Nc1nc(COC)nc2[nH]c3cc(-c4c(C)noc4C)c(OC)cc3c12 [Cpd. A, reference compound]
IC50 (H520; Homo sapiens, NCI-H520, 96 h): 280 nM | IC50 (HCC1187; Homo sapiens, 96 h): 960 nM | IC50 (A549; Homo sapiens, 96 h): 20 nM | IC50 (SUM-159; SUM159, 96 h): 510 nM | IC50 (SW48; Homo sapiens): 45.7 nM | IC50 (SKCO-1; Homo sapiens, SK-CO-1): 1080 ± 240 nM | IC50 (CALU6; Homo sapiens, Calu-6, 96 h): 630 nM | IC50 (HBL-100; Homo sapiens, 96 h): 100 nM | IC50 (HCC1954; Homo sapiens, 96 h): 1620 nM | IC50 (RKO; Homo sapiens): 272 ± 235 nM | IC50 (SW1463; Homo sapiens): > 2500 nM | IC50 (SW837; Homo sapiens): 84 ± 20 nM | IC50 (H508; Homo sapiens, NCI-H508): 167 ± 90 nM | IC50 (H1648; Homo sapiens, NCI-H1648, 96 h): 140 nM | IC50 (H1299; Homo sapiens, NCI-H1299, 96 h): 60 nM | IC50 (H2170; Homo sapiens, NCI-H2170, 96 h): 20 nM | IC50 (H322; NCI-H322, 96 h): 340 nM | IC50 (MDA-MB-453; Homo sapiens, 96 h): 40 nM | IC50 (SKLU-1; Homo sapiens, SK-LU-1, 96 h): 40 nM | IC50 (Lovo; Homo sapiens): 44 ± 17 nM | IC50 (SW1412): 40 ± 20 nM | IC50 (MDA-MB-157; Homo sapiens, 96 h): 860 nM | IC50 (LS123; Homo sapiens, LS-123): 739 ± 680 nM
